Data on 1 compound can be found in US20220257592A1, “METHODS OF TREATING CANCER” (HOFFMANN-LA ROCHE INC., priority 2019, published 2022).

The nature of data set [1]: Expanded safety population (338 adult and 30 pediatric patients), fractures. The class given is in vivo, human. An excerpt: In adult patients, some fractures occurred in the setting of a fall or other trauma to the affected area, while in pediatric patients, all fractures occurred in patients with minimal or no trauma. In general, there was inadequate assessment for tumor involvement at the site of fracture; however, radiologic abnormalities possibly indicative of tumor involvement were reported in some patients. In both adult and pediatric patients, most fractures were hip or other lower extremity fractures (e.g., femoral or tibial shaft). In a limited number of patients, bilateral femoral neck fractures occurred. The median time to fracture was 3.8 months (range 0.3 to 18.5 months) in adults and 4.0 months (range: 1.8 months to 7.4 months) in pediatric patients.

The target of data set [2] is cytochrome P450 3A4 (CYP3A4) (Homo sapiens, UniProt P08684). As to the kind of experiment: In vitro metabolism studies. The class given is in vitro ADME.
For data set [3], the target named is anaplastic lymphoma kinase (ALK) (Homo sapiens, UniProt Q9UM73). Particulars: cited from earlier work.
The test system of data set [4] is cancer having at least one molecular alteration in one or more of ALK, ROS1, TrkA, TrkB and TrkC. Particulars: early clinical studies; cited from earlier work.

Regarding `CN1CCN(c2ccc(C(=O)Nc3n[nH]c4ccc(Cc5cc(F)cc(F)c5)cc34)c(NC3CCOCC3)c2)CC1` [Entrectinib, N-[5-(3,5-difluorobenzyl)-1H-indazol-3-yl]-4-(4-methyl-piperazin-1-yl)-2-(tetrahydro-pyran-4-ylamino)-benzamide], the Fractures stood at 23% in data set [1] (30 pediatric patients) and 5% in data set [1] (338 adult patients). Further, the “Entrectinib interrupted due to fractures” value was 41% in data set [1] (adults) and 43% in data set [1] (pediatric patients). In addition, the “Median time to fracture” value was determined as 3.8 months in data set [1] (adults, range 0.3 to 18.5 months) and 4.0 months in data set [1] (pediatric patients, range: 1.8 months to 7.4 months). In addition, the “Discontinuation due to fractures” value in data set [1] (human, in vivo) is reported as “No patients discontinued”. In addition, in data set [1] (human, in vivo), the Risk of fractures result is “increases the risk of fractures”. Further, the CYP3A4 substrate status result in data set [2] is reported as “sensitive substrate of CYP3A4”. The route of clearance result in data set [2] (in vitro studies) is recorded as “predominantly through hepatic metabolism”. Further, the “share of metabolism by CYP3A4” value in data set [2] (in vitro studies) was about 76%. In addition, the “inhibition of ALK tyrosine kinase” value in data set [3] is “potent inhibitor”. The “antitumor effects in patients” value in data set [4] is “antitumor effects”.
